Like-named read-outs stand apart in the source and are kept apart here.
What was measured:
[1] = Plasma elimination of CLF after intravenous injection in healthy volunteers (and patients); type: in vivo, human
Protocol: A study was carried out in six healthy volunteers (1 female, 5 male), ages 30-53 years. Subjects were studied supine after overnight fasting. After an initial basal blood sample was taken, CLF in a dose of 0.02 mg/kg of body weight (b.w.) in physiological saline was injected intravenously during 15 seconds. Venous blood samples were collected from the opposite antecubital vein into gel and lithium heparin containers (sold under the Trade Name Vacutainers by Becton Dickinson Vacutainer Systems) at 2, 3, 4, 6, 10, 15, 20, 30, 60 and 90 minutes. The blood samples were then centrifuged and 0.5 ml aliquots of plasma were taken and added to 3.5 ml of methanol to precipitate plasma proteins, followed by further centrifugation. The supernatant (1 ml) was diluted to 3 ml with methanol and the fluorescence was then measured by spectrometer (Perkin Elmer LS5B Luminescence Spectrometer).
CLF concentration (μg/ml) was derived from a calibration curve which expressed the equation: […]
where y represents the measured fluorescence in fluorescence units at an excitation wavelength of 490 nm with emission at 520 nm and x represents the CLF concentration in μg/ml. The calibration curve was calibrated from fluorescence meaurements of solutions having known CLF concentrations followed by linear regression analysis.
Non linear plasma elimination curves presented as percentage dose administered per liter of plasma were fitted to a tri-exponential model. The half life (t1/2 time) was calculated for the first (t1/2 1st phase), second (t1/2 2nd phase) and third (t1/2 3rd phase) phases of the elimination curves from the equations: […]
where k1, k2 and k3 were calculated for each subject using the equation:
Ct =Ae^-k.sbsp.1^t +Be^-k.sbsp.2^t
Ct is the concentration of CLF at time t, A, B and C are the intercepts of each phase of elimination at t=0 k1, k2 and k3 are fractional disappearance rates of the three phases of elimination.

[2] = Standard liver function tests, electrolytes and kidney function before and after 0.5 mg/kg b.w. CLF; type: in vivo, human
Protocol: In five healthy volunteers, a 25-fold higher dose of CLF (0.5 mg/kg b.w.) was injected in order to further assess the appropriateness of the dose chosen and the safety of the compound. […] Table.
Tests of Liver Function Before And After CLF Dose of
0.5 mg/Kg b.w. For 5 Healthy Patients.

[3] = Horak et al., cited from earlier work
[4] = radiolabelled, bi-exponential model, Cowen et al.; cited from earlier work
[5] = CLF 0.02 mg/kg b.w. i.v., healthy volunteers, plasma, tri-exponential model
[6] = after CLF 0.5 mg/kg b.w., only one value given

## CC(CCC(=O)NC(CCCCNC(=S)Nc1ccc(-c2c3ccc(=O)cc-3oc3cc(O)ccc23)c(C(=O)O)c1)C(=O)O)C1CCC2C3C(O)CC4CC(O)CCC4(C)C3CC(O)C12C (stereo not shown) [CLF, cholyl-lysyl-fluorescein]
[1]; 0.5 mg/kg b.w. i.v. versus 0.02 mg/kg, healthy volunteers
  efficiency of hepatic clearance (elimination curves at 25-fold increased dose): efficiency of hepatic clearance is unchanged
[1]; 60 min vs 10 min, plasma, healthy volunteers
  percentage of fluorescence after 60 min (fluorescence at 60 min compared with 10 min): 13.1±1.6%
[1]; 90 minutes, i.v., healthy volunteers
  Plasma retention at 90 minutes, percentage of the dose administered per liter of plasma: 2.2%
[1]; [5]
  t1/2 1st phase of elimination: 1.7 ± 0.9 min
  t1/2 2nd phase of elimination: 6.7 ± 1.6 min
  t1/2 3rd phase of elimination: 68 ± 17 min
[1]; body of data, comparison with natural bile acids
  CLF plasma elimination compared with natural bile acids: very similar to the elimination of natural bile acids
[1]; calculated as proposed by Thiordleifsson et al., 0.02 mg/kg
  volume of distribution: 2214 ± 147 mL
[1]; healthy patients versus patients with fatty, cirrhotic and recently transplanted livers (5 days post operation)
  CLF elimination curves of FIG. 2: differing rates of CLF elimination
[2]; 0.5 mg/kg b.w. i.v., five healthy volunteers
  Serum biochemistry including basic liver function tests, electrolytes and kidney function: did not change significantly
[2]; 0.5 mg/kg b.w. i.v., healthy volunteers, not statistically significant
  plasma alkaline phosphatase levels post injection: consistent diminution
[2]; after CLF 0.5 mg/kg b.w., before: 10
  bilirubin after CLF injection: 11 μM/L
[2]; after CLF 0.5 mg/kg b.w., before: 17
  AST (aspartate aminotransferase) after CLF injection: 16 U/L
[2]; after CLF 0.5 mg/kg b.w., before: 94
  Creatinine after CLF injection: 89 μM/L
[2]; after CLF 0.5 mg/kg b.w., before: 148
  AlkP (alkaline phosphatase) after CLF injection: 134 U/L
[2]; [6]
  Albumin after CLF injection: 42 g/L
  Urea after CLF injection: 4.3 mM/L

## C[C@H](CCC(=O)O)[C@H]1CC[C@H]2[C@@H]3[C@H](O)C[C@@H]4C[C@H](O)CC[C@]4(C)[C@H]3C[C@H](O)[C@]12C [cholic acid]
[3]; FHF patients who survived
  60 min plasma retention: 60%
[3]; healthy volunteers, 60 min compared with 10 min
  60 min plasma retention: 8±1%
[3]; patients with fulminant hepatic failure (FHF) who subsequently died
  60 min plasma retention: 71%

## C[C@H](CCC(=O)NCC(=O)O)[C@H]1CC[C@H]2[C@@H]3[C@H](O)C[C@@H]4C[C@H](O)CC[C@]4(C)[C@H]3C[C@H](O)[C@]12C [cholyl glycine]
[4]
  t1/2 first exponential: 1.7 ± 0.1 min
  t1/2 second exponential: 7 ± 0.1 min

Source: patent US6030841A, “Liver function test” (Norgine Limited, priority 1997, dated 2000)
